According to US4312867A, “Antibacterial compounds, processes for their preparation and compositions containing them” (Beecham Group Limited, priority 1979, dated 1982):
In brackets after ≈: the same amount, converted by molar mass. Like-named read-outs stand apart in the source and are kept apart here.

Key:
E. coli NCTC 10418 [1] = assay: MIC human bacteria (Table 1), serial dilution in nutrient agar; type: cell-based; conditions: Escherichia coli, NCTC10418; E. coli NCTC 10418; nutrient agar with 5% chocolated horse blood; read-out: MIC
E. coli ESS = assay: as above; type: cell-based; conditions: Escherichia coli
P. mirabilis 889 = assay: as above; type: cell-based; conditions: Proteus mirabilis
K. aerogenes A = assay: as above; type: cell-based; conditions: Klebsiella aerogenes, nutrient agar with 5% chocolated horse blood
Ps. aeruginosa 10662 = assay: as above; type: cell-based; conditions: Pseudomonas aeruginosa, nutrient agar with 5% chocolated horse blood
[2] = system: Pasteurella multocida 1633; assay: as above; type: cell-based
[3] = system: Haemophilus influenzae Q1; assay: as above; type: cell-based
[4] = system: Haemophilus influenzae Wy21; assay: as above; type: cell-based; conditions: Haemophilus influenzae Wy21; nutrient agar with 5% chocolated horse blood; read-out: MIC
[5] = system: Neisseria catarrhalis 1502; assay: as above; type: cell-based; conditions: nutrient agar with 5% chocolated horse blood
Bacillus subtilis 6633 = assay: as above; type: cell-based; conditions: nutrient agar with 5% chocolated horse blood
[6] = system: Corynebacterium xerosis 9755; assay: as above; type: cell-based; conditions: nutrient agar with 5% chocolated horse blood, read-out: MIC
Sarcina lutea 8340 = assay: as above; type: cell-based; conditions: Micrococcus luteus, nutrient agar with 5% chocolated horse blood, read-out: MIC
Staph aureus Oxford [7] = assay: as above; type: cell-based; conditions: Staphylococcus aureus, nutrient agar with 5% chocolated horse blood
Staph aureus Russell = assay: as above; type: cell-based; conditions: Staphylococcus aureus, nutrient agar with 5% chocolated horse blood
Staph aureus W2827 = assay: as above; type: cell-based; conditions: Staphylococcus aureus, nutrient agar with 5% chocolated horse blood
Strep faecalis I = assay: as above; type: cell-based; conditions: nutrient agar with 5% chocolated horse blood
Strep pyogenes A 64/848 = assay: as above; type: cell-based; conditions: nutrient agar with 5% chocolated horse blood
Strep pyogenes B 2788 = assay: as above; type: cell-based; conditions: nutrient agar with 5% chocolated horse blood
Strep pyogenes C 2761 = assay: as above; type: cell-based; conditions: nutrient agar with 5% chocolated horse blood
Strep pneumoniae CN33 = assay: as above; type: cell-based; conditions: nutrient agar with 5% chocolated horse blood
E. coli NCTC 10418 [8] = assay: MIC veterinary bacteria (Table 2), serial dilution in agar; type: cell-based; conditions: Escherichia coli, NCTC10418; E. coli NCTC 10418; diagnostic sensitivity test agar; read-out: MIC
E. coli E1 = assay: as above; type: cell-based; conditions: Escherichia coli, diagnostic sensitivity test agar
S. dublin S7 = assay: as above; type: cell-based; conditions: Salmonella enterica, diagnostic sensitivity test agar
S. typhimurium S18 = assay: as above; type: cell-based; conditions: Salmonella enterica, diagnostic sensitivity test agar
Bord bronchiseptica B08 = assay: as above; type: cell-based; conditions: diagnostic sensitivity test agar
Bord bronchiseptica B09 = assay: as above; type: cell-based; conditions: diagnostic sensitivity test agar
Past multocida PA1 = assay: as above; type: cell-based; conditions: diagnostic sensitivity test agar
Past multocida PA2 = assay: as above; type: cell-based; conditions: diagnostic sensitivity test agar
[9] = system: Erysipelothrix rhusiopathiae NCTC 8163; assay: as above; type: cell-based; conditions: NCTC8163; Erysipelothrix rhusiopathiae NCTC 8163; diagnostic sensitivity test agar; read-out: MIC
[10] = system: Staph aureus B4 (pen. resis); assay: as above; type: cell-based; conditions: Staphylococcus aureus; Staph aureus B4 (pen. resis); diagnostic sensitivity test agar; read-out: MIC
[11] = system: Staph aureus 152 (pen. sens); assay: as above; type: cell-based; conditions: Staphylococcus aureus, diagnostic sensitivity test agar
Staph aureus Oxford [12] = assay: as above; type: cell-based; conditions: Staphylococcus aureus; Staph aureus Oxford; diagnostic sensitivity test agar; read-out: MIC
[13] = system: Strep suis (group D) SPS11; assay: as above; type: cell-based; conditions: diagnostic sensitivity test agar
Strep uberis SPU1 = assay: as above; type: cell-based; conditions: diagnostic sensitivity test agar
Strep dysgalaciae SPD1 = assay: as above; type: cell-based; conditions: diagnostic sensitivity test agar
Strep agalactiae SPA1 = assay: as above; type: cell-based; conditions: diagnostic sensitivity test agar
[14] = Serum binding by ultrafiltration of porcine serum; type: in vitro ADME; conditions: pig, 8 mcg/ml, microbiological assay, read-out: % bound to pig serum (converted)
Protocol: Serum binding was assessed by ultrafiltration of porcine serum containing compounds at 8 mcg/ml, and through an Amicon CF50A ultrafiltration cone. Separation of ultrafiltrate was achieved by centrifugation. Unbound concentrations of compound were measured in the ultrafiltrate by microbiological assay (B. subtilis ATCC 6633) against standards prepared in saline.

[15] = system: Corynebacterium pyogenes CY1; assay: MIC veterinary bacteria (Table 2), serial dilution in agar; type: cell-based; conditions: Trueperella pyogenes, diagnostic sensitivity test agar

## C/C(=C\C(=O)OCCCCCCCCS(N)(=O)=O)CC1OCC(CC2OC2C(C)C(C)O)C(O)C1O (stereo not shown) [Example 3, 8-Sulphamoyloctyl monate A]
E. coli NCTC 10418 [1]
  MIC: > 100 µg/mL
E. coli ESS; E. coli ESS, nutrient agar with 5% chocolated horse blood, read-out: MIC
  MIC: 0.5 µg/mL (≈ 0.933 µM)
P. mirabilis 889; P. mirabilis 889, nutrient agar with 5% chocolated horse blood, read-out: MIC
  MIC: > 100 µg/mL
K. aerogenes A
  MIC: > 100 µg/mL
Ps. aeruginosa 10662
  MIC: > 100 µg/mL
[2]; Pasteurella multocida, 1633
  MIC: 1 µg/mL (≈ 1.87 µM)
[3]; Haemophilus influenzae Q1, nutrient agar with 5% chocolated horse blood, read-out: MIC
  MIC: 0.2 µg/mL (≈ 0.373 µM)
[4]
  MIC: 0.2 µg/mL (≈ 0.373 µM)
[5]
  MIC: 1 µg/mL (≈ 1.87 µM)
Bacillus subtilis 6633
  MIC: 0.2 µg/mL (≈ 0.373 µM)
[6]
  MIC: > 100 µg/mL
Sarcina lutea 8340
  MIC: > 100 µg/mL
Staph aureus Oxford [7]
  MIC: 1 µg/mL (≈ 1.87 µM)
Staph aureus Russell
  MIC: 1 µg/mL (≈ 1.87 µM)
Staph aureus W2827
  MIC: 1 µg/mL (≈ 1.87 µM)
Strep faecalis I
  MIC: > 100 µg/mL
Strep pyogenes A 64/848
  MIC: 0.5 µg/mL (≈ 0.933 µM)
Strep pyogenes B 2788
  MIC: 1 µg/mL (≈ 1.87 µM)
Strep pyogenes C 2761
  MIC: 1 µg/mL (≈ 1.87 µM)
Strep pneumoniae CN33
  MIC: 0.5 µg/mL (≈ 0.933 µM)
E. coli NCTC 10418 [8]
  MIC: > 80 µg/mL
E. coli E1
  MIC: > 80 µg/mL
S. dublin S7
  MIC: > 80 µg/mL
S. typhimurium S18
  MIC: > 80 µg/mL
Bord bronchiseptica B08
  MIC: 80 µg/mL (≈ 149 µM)
Bord bronchiseptica B09
  MIC: 40 µg/mL (≈ 74.7 µM)
Past multocida PA1
  MIC: 1.25 µg/mL (≈ 2.33 µM)
Past multocida PA2
  MIC: 0.156 µg/mL (≈ 0.291 µM)
[9]
  MIC: 10 µg/mL (≈ 18.7 µM)
[10]
  MIC: 0.625 µg/mL (≈ 1.17 µM)
[11]
  MIC: 0.625 µg/mL (≈ 1.17 µM)
Staph aureus Oxford [12]
  MIC: 0.625 µg/mL (≈ 1.17 µM)
[13]
  MIC: 20 µg/mL (≈ 37.3 µM)
Strep uberis SPU1
  MIC: 1.25 µg/mL (≈ 2.33 µM)
Strep dysgalaciae SPD1
  MIC: 2.5 µg/mL (≈ 4.67 µM)
Strep agalactiae SPA1
  MIC: 2.5 µg/mL (≈ 4.67 µM)
[14]
  fraction unbound: 0.035

## C/C(=C\C(=O)OCCCCCCS(N)(=O)=O)CC1OCC(CC2OC2C(C)C(C)O)C(O)C1O (stereo not shown) [Example 2, 6-Sulphamoylhexyl monate A]
E. coli NCTC 10418 [1]
  MIC: > 100 µg/mL
E. coli ESS
  MIC: 0.5 µg/mL (≈ 0.985 µM)
P. mirabilis 889; 889
  MIC: 50 µg/mL (≈ 98.5 µM)
K. aerogenes A
  MIC: > 100 µg/mL
Ps. aeruginosa 10662
  MIC: > 100 µg/mL
[2]; Pasteurella multocida 1633, nutrient agar with 5% chocolated horse blood, read-out: MIC
  MIC: 2.5 µg/mL (≈ 4.92 µM)
[3]; Haemophilus influenzae, Q1
  MIC: 0.1 µg/mL (≈ 0.197 µM)
Bacillus subtilis 6633
  MIC: 0.5 µg/mL (≈ 0.985 µM)
[6]
  MIC: > 100 µg/mL
Sarcina lutea 8340
  MIC: > 100 µg/mL
Staph aureus Oxford [7]
  MIC: 5 µg/mL (≈ 9.85 µM)
Staph aureus Russell
  MIC: 5 µg/mL (≈ 9.85 µM)
Staph aureus W2827
  MIC: 5 µg/mL (≈ 9.85 µM)
Strep faecalis I
  MIC: > 100 µg/mL
Strep pyogenes A 64/848
  MIC: 0.5 µg/mL (≈ 0.985 µM)
Strep pyogenes B 2788
  MIC: 1 µg/mL (≈ 1.97 µM)
Strep pyogenes C 2761
  MIC: 1 µg/mL (≈ 1.97 µM)
Strep pneumoniae CN33
  MIC: 0.2 µg/mL (≈ 0.394 µM)
E. coli NCTC 10418 [8]
  MIC: > 80 µg/mL
E. coli E1
  MIC: > 80 µg/mL
S. dublin S7
  MIC: > 80 µg/mL
S. typhimurium S18
  MIC: > 80 µg/mL
Bord bronchiseptica B08
  MIC: 20 µg/mL (≈ 39.4 µM)
Bord bronchiseptica B09
  MIC: 10 µg/mL (≈ 19.7 µM)
Past multocida PA1
  MIC: 0.312 µg/mL (≈ 0.615 µM)
Past multocida PA2
  MIC: 0.039 µg/mL (≈ 0.0768 µM)
[9]
  MIC: 20 µg/mL (≈ 39.4 µM)
[15]
  MIC: 10 µg/mL (≈ 19.7 µM)
[10]
  MIC: 2.5 µg/mL (≈ 4.92 µM)
[11]
  MIC: 1.25 µg/mL (≈ 2.46 µM)
Staph aureus Oxford [12]
  MIC: 2.5 µg/mL (≈ 4.92 µM)
[13]
  MIC: 2.5 µg/mL (≈ 4.92 µM)
Strep uberis SPU1
  MIC: 0.625 µg/mL (≈ 1.23 µM)
Strep dysgalaciae SPD1
  MIC: 0.625 µg/mL (≈ 1.23 µM)
Strep agalactiae SPA1
  MIC: 1.25 µg/mL (≈ 2.46 µM)
[14]
  fraction unbound: 0.287
